# Patent publication US20240409556A1, “BENZOPIPERAZINE AND RELATED ANALOGS FOR INHIBITING YAP/TAZ-TEAD” (Springworks Therapeutics, Inc., priority 2023, published 2024)
# Test system: YAP/TAZ-TEAD transcription
# Experiment: Reporter gene assay for measuring the inhibition of YAP/TAZ-TEAD transcription (TEAD-responsive element luciferase reporter in Hek293T cells)
# Assay type: cell-based
# Details: 24 hours incubation
# Experimental: Example 56: Activity of Compounds of the Disclosure in a Reporter Gene Assay for Measuring the Inhibition of YAP/TAZ-TEAD Transcription
# Hek293T cells were cultured in DMEM supplemented with 10% fetal bovine serum, Sodium pyruvate, Sodium bicarbonate, L-glutamine. The cells were harvested and transiently transfected with TEAD-responsive element luciferase reporter. Transfected cells were plated in 384-well plate containing pre-diluted compounds. After 24 hours incubation at 37° C./5% CO2, assay plates were cooled to room temperature and levelled to an equal volume per well, prior to the addition of 25 uL luciferase substrate SteadyLite (Perkin Elmer)/well. The plate was shaken for 10 min at 600 rpm, centrifuged for 1 min at 500 rpm and measured with an Envision reader (PerkinElmer). The amount of relative light units produced by the TEAD reporter was used to calculate the percentage of inhibition.
# The percent of reporter inhibition was calculated in the presence of a positive control inhibitor (100% inhibition) versus a condition with the presence of the vehicle basal activity of the reporter (0% inhibition). The ability of a test compound to inhibit this activity was determined as: Percentage inhibition=[[…]((RLU determined in the presence of vehicle−RLU determined for sample with test compound present) divided by (RLU determined in the presence of vehicle−RLU determined for sample with positive control inhibitor))]*100.
# The activities of example compounds tested are depicted in Table 3. The activity ranges A, B and C refer to IC50 values in the reporter gene assay as follows: “A”: IC50<1 μM; “B”: 1 μM≤IC50≤10 μM and “C”: IC50>10 μM; NT=not tested.
row,Structure (SMILES),IC50
1,"CC(=O)N1CCN2c3ncccc3N(c3ccc(C(F)(F)F)cn3)CC2C1 (stereo not drawn) [53-En2, 1-(5-(5-(trifluoromethyl)pyridin-2-yl)-5,6,6a,7,9,10-hexahydro-8H-pyrazino[1,2-a]pyrido[3,2-e]pyrazin-8-yl)ethan-1-one]",> 10000 nM
2,"O=C(O)C1CCN2c3ncccc3N(c3ccc(C(F)(F)F)cc3)CC2C1 [96A-En2, (6aS,8S)- or (6aR,8S)- or (6aR,8R)- or (6aS,8R)-5-(4-(trifluoromethyl)phenyl)-6,6a,7,8,9,10-hexahydro-5H-dipyrido[1,2-a:3′,2′-e]pyrazine-8-carboxylic acid]",< 1000 nM
3,"Cc1ccc2c(n1)N1CCC(C(=O)O)CC1CN2c1ccc(C(F)(F)F)cc1 [101-D3, (6aS,8S)— or (6aR,8S)— or (6aR,8R)— or (6aS,8R)-2-methyl-5-(4-(trifluoromethyl)phenyl)-6,6a,7,8,9,10-hexahydro-5H-dipyrido[1,2-a:3′,2′-e]pyrazine-8-carboxylic acid]",< 1000 nM
4,"CC1(C(=O)O)CCN2c3ccccc3N(c3ccc(C(F)(F)F)cc3)CC2C1 [115-D1, (6aS,8S)— or (6aR,8S)— or (6aR,8R)— or (6aS,8R)-8-methyl-5-(4-(trifluoromethyl)phenyl)-6,6a,7,8,9,10-hexahydro-5H-pyrido[1,2-a]quinoxaline-8-carboxylic acid]",1000 to 10000 nM
5,"CC1(C(=O)O)CCN2c3ccccc3N(c3ccc(C(F)(F)F)cc3)CC2C1 [115-D2, (6aS,8S)— or (6aR,8S)— or (6aR,8R)— or (6aS,8R)-8-methyl-5-(4-(trifluoromethyl)phenyl)-6,6a,7,8,9,10-hexahydro-5H-pyrido[1,2-a]quinoxaline-8-carboxylic acid]",< 1000 nM
6,"O=C(O)C1(F)CCN2c3ccccc3N(c3ccc(C(F)(F)F)cc3)CC2C1 [123-D2, (6aS,8S)- or (6aR,8S)- or (6aR,8R)- or (6aS,8R)-8-fluoro-5-(4-(trifluoromethyl)phenyl)-6,6a,7,8,9,10-hexahydro-5H-pyrido[1,2-a]quinoxaline-8-carboxylic acid]",< 1000 nM
7,"O=C(O)C1(F)CCN2c3ccccc3N(c3ccc(C(F)(F)F)cc3)CC2C1 [123-D3, (6aS,8S)- or (6aR,8S)- or (6aR,8R)- or (6aS,8R)-8-fluoro-5-(4-(trifluoromethyl)phenyl)-6,6a,7,8,9,10-hexahydro-5H-pyrido[1,2-a]quinoxaline-8-carboxylic acid]",< 1000 nM
8,"O=C(O)C1(F)CCN2c3ccccc3N(c3ccc(C(F)(F)F)cc3)CC2C1 [123-D4, (6aS,8S)- or (6aR,8S)- or (6aR,8R)- or (6aS,8R)-8-fluoro-5-(4-(trifluoromethyl)phenyl)-6,6a,7,8,9,10-hexahydro-5H-pyrido[1,2-a]quinoxaline-8-carboxylic acid]",< 1000 nM

# Same assay, conditions: Homo sapiens, HEK-293T, 24 h, 24 hours incubation
row,Structure (SMILES),IC50
1,"CC(=O)NC[C@H]1CN(c2ccc(C(F)(F)F)cc2)c2cccnc2N1 [39-En1, (S)-N-((1-(4-(trifluoromethyl)phenyl)-1,2,3,4-tetrahydropyrido[2,3-b]pyrazin-3-yl)methyl)acetamide]",< 1000 nM
2,"CC(=O)NC[C@@H]1CN(c2ccc(C(F)(F)F)cc2)c2cccnc2N1 [39-En2, (R)-N-((1-(4-(trifluoromethyl)phenyl)-1,2,3,4-tetrahydropyrido[2,3-b]pyrazin-3-yl)methyl)acetamide]",< 1000 nM
3,"CNC(=O)O[C@H]1C[C@@H]2CN(c3ccc(C(F)(F)F)cc3)c3cccnc3N2C1 [55-En1, (6aR,8S)-5-(4-(trifluoromethyl)phenyl)-5,6,6a,7,8,9-hexahydropyrido[3,2-e]pyrrolo[1,2-a]pyrazin-8-yl methylcarbamate]",< 1000 nM
4,"O=C(O)C1CCN2c3ccccc3N(c3ccc(C(F)(F)F)cc3)CC2C1 (stereo not drawn) [65A, (cis)- or (trans)-5-(4-(trifluoromethyl)phenyl)-6,6a,7,8,9,10-hexahydro-5H-pyrido[1,2-a]quinoxaline-8-carboxylic acid]",< 1000 nM
5,"CC(=O)N[C@@H]1C[C@@H]2CN(c3ccc(C(F)(F)F)cc3)c3cccnc3N2C1 [70-D1, N-((6aR,8R)-5-(4-(trifluoromethyl)phenyl)-5,6,6a,7,8,9-hexahydropyrido[3,2-e]pyrrolo[1,2-a]pyrazin-8-yl)acetamide]",< 1000 nM
6,"CC(=O)N[C@H]1C[C@@H]2CN(c3ccc(C(F)(F)F)cc3)c3cccnc3N2C1 [70-D2, N-((6aR,8S)-5-(4-(trifluoromethyl)phenyl)-5,6,6a,7,8,9-hexahydropyrido[3,2-e]pyrrolo[1,2-a]pyrazin-8-yl)acetamide]",< 1000 nM
7,"O=C(O)C1CCN2c3ncccc3N(c3ccc(C(F)(F)F)cc3)CC2C1 [96A-En1, (6aS,8S)- or (6aR,8S)- or (6aR,8R)- or (6aS,8R)-5-(4-(trifluoromethyl)phenyl)-6,6a,7,8,9,10-hexahydro-5H-dipyrido[1,2-a:3′,2′-e]pyrazine-8-carboxylic acid]",< 1000 nM
8,"O=C(O)C1CCN2c3ncc(Cl)cc3N(c3ccc(C(F)(F)F)cc3)CC2C1 (stereo not drawn) [100A, (cis)- or (trans)-3-chloro-5-(4-(trifluoromethyl)phenyl)-6,6a,7,8,9,10-hexahydro-5H-dipyrido[1,2-a:3′,2′-e]pyrazine-8-carboxylic acid]",< 1000 nM
9,"Cc1ccc2c(n1)N1CCC(C(=O)O)CC1CN2c1ccc(C(F)(F)F)cc1 [101-D1, (6aS,8S)— or (6aR,8S)— or (6aR,8R)— or (6aS,8R)-2-methyl-5-(4-(trifluoromethyl)phenyl)-6,6a,7,8,9,10-hexahydro-5H-dipyrido[1,2-a:3′,2′-e]pyrazine-8-carboxylic acid]",< 1000 nM
10,"C[C@@H](O)C(=O)N[C@@H]1C[C@@H]2CN(c3ccc(C(F)(F)F)cc3)c3cccnc3N2C1 [109-En1, (R)-2-hydroxy-N-((6aR,8R)-5-(4-(trifluoromethyl)phenyl)-5,6,6a,7,8,9-hexahydropyrido[3,2-e]pyrrolo[1,2-a]pyrazin-8-yl)propanamide]",< 1000 nM
11,"O=C(NO)C1CCN2c3ccccc3N(c3ccc(C(F)(F)F)cc3)CC2C1 [116B-En1, (6aS,8S)- or (6aR,8S)- or (6aR,8R)- or (6aS,8R)-N-hydroxy-5-(4-(trifluoromethyl)phenyl)-6,6a,7,8,9,10-hexahydro-5H-pyrido[1,2-a]quinoxaline-8-carboxamide]",< 1000 nM
12,"NC(=O)C1CCN2c3ccccc3N(c3ccc(C(F)(F)F)cc3)CC2C1 (stereo not drawn) [117B-En1, (cis)- or (trans)-5-(4-(trifluoromethyl)phenyl)-6,6a,7,8,9,10-hexahydro-5H-pyrido[1,2-a]quinoxaline-8-carboxamide]",< 1000 nM
13,"FC(F)(F)c1ccc(N2CC3CC(c4nnn[nH]4)CCN3c3ccccc32)cc1 (stereo not drawn) [121-D1, 8-(1H-tetrazol-5-yl)-5-(4-(trifluoromethyl)phenyl)-6,6a,7,8,9,10-hexahydro-5H-pyrido[1,2-a]quinoxaline]",1000 to 10000 nM
14,"O=C(O)C1(O)CCN2c3ccccc3N(c3ccc(C(F)(F)F)cc3)CC2C1 (stereo not drawn) [126A, (cis)- or (trans)-8-hydroxy-5-(4-(trifluoromethyl)phenyl)-6,6a,7,8,9,10-hexahydro-5H-pyrido[1,2-a]quinoxaline-8-carboxylic acid]",< 1000 nM
15,"C=CC(=O)NCC1CN(c2ccc(C(F)(F)F)cc2)c2ccccc2N1CCO (stereo not drawn) [compound 1, N-((1-(2-hydroxyethyl)-4-(4-(trifluoromethyl)phenyl)-1,2,3,4-tetrahydroquinoxalin-2-yl)methyl)acrylamide]",< 1000 nM
16,"CC(=O)NCC1CN(c2ccc(C(F)(F)F)cc2)c2ccccc2N1CCO (stereo not drawn) [compound 2, N-((1-(2-hydroxyethyl)-4-(4-(trifluoromethyl)phenyl)-1,2,3,4-tetrahydroquinoxalin-2-yl)methyl)acetamide]",> 10000 nM
17,"CC(=O)NCC1CN(c2ccc(C(F)(F)F)cc2)c2ccccc2N1CC#N (stereo not drawn) [compound 4, N-((1-(cyanomethyl)-4-(4-(trifluoromethyl)phenyl)-1,2,3,4-tetrahydroquinoxalin-2-yl)methyl)acetamide]",1000 to 10000 nM
18,"C=CC(=O)NCC1CN(c2ccc(C(F)(F)F)cc2)c2ccccc2N1CCCO (stereo not drawn) [compound 5, N-((1-(3-hydroxypropyl)-4-(4-(trifluoromethyl)phenyl)-1,2,3,4-tetrahydroquinoxalin-2-yl)methyl)acrylamide]",< 1000 nM
19,"CC(=O)NCC1CN(c2ccc(C(F)(F)F)cc2)c2ccccc2N1CCCO (stereo not drawn) [compound 6, N-((1-(3-hydroxypropyl)-4-(4-(trifluoromethyl)phenyl)-1,2,3,4-tetrahydroquinoxalin-2-yl)methyl)acetamide]",> 10000 nM
20,"C=CC(=O)NCC1CN(c2ccc(C(F)(F)F)cc2)c2ccccc2N1CCC(=O)O (stereo not drawn) [compound 7, 3-(2-(acrylamidomethyl)-4-(4-(trifluoromethyl)phenyl)-3,4-dihydroquinoxalin-1(2H)-yl)propanoic acid]",> 10000 nM
21,"CC(=O)NCC1CN(c2ccc(C(F)(F)F)cc2)c2ccccc2N1CCC(=O)O (stereo not drawn) [compound 8, 3-(2-(acetamidomethyl)-4-(4-(trifluoromethyl)phenyl)-3,4-dihydroquinoxalin-1(2H)-yl)propanoic acid]",> 10000 nM
22,"C=CC(=O)NCC1CN(c2ccc(C(F)(F)F)cc2)c2ccccc2N1CCC(=O)NC (stereo not drawn) [compound 9, N-((1-(3-(methylamino)-3-oxopropyl)-4-(4-(trifluoromethyl)phenyl)-1,2,3,4-tetrahydroquinoxalin-2-yl)methyl)acrylamide]",< 1000 nM
